Assay results published in patent publication US9303061B2, “Spiro compounds as Hepatitis C virus inhibitors” (Sunshine Luke Pharma Co., Ltd., priority 2011, dated 2016).

Experiments:
HCV GT1a replicon cells = test: HCV replicon assay, GT1a replicon cells (luciferase reporter / NEO gene qPCR); format: cell-based; settings: EC50 range against HCV 1a genotype, 72 hours incubation
Method: (§1) An HCV Replicon assay was utilized in the present disclosure, and was prepared, developed and validated as described in Science, 1999, 285 (5424), 110-3 and J. Virol., 2003, 77 (5), 3007-19.
(§2) HCV GT1a, GT1b and GT2a replicon cells were used to test the currently described compound series as well as wild-type cells HCV 1b and resistant cells Y93H, L31F, P32L and 1302V. GT1a, GT1b and GT2a are HCV Replicon System which is transfected HCV 1a, 1b, 2a genotype respectively. The system containing G418 resistance gene NEO and Luciferase Reporter Gene can be used to determine the level of HCV replication, and evaluate the effects of the compounds inhibiting HCV replication, by using a real-time quantitative polymerase chain reaction (qPCR) method to detect NEO, and chemiluminescence method to test Luciferase Reporter Gene.
(§3) 1. Testing EC50 of the Compounds by Luciferase Assay
(§4) The GT1a cells and GT1b cells were seeded into 96-well plates (8,000 cells in 125 μl/well) respectively; each compound was diluted to desired concentration using 5-fold serial dilutions protocol, 10 dose in duplicate, and added to wells with POD™ 810 Plate Assembler. The final concentration of DMSO was 0.5%; the plates were incubated in a CO2 incubator for 72 hours; after that, 40 μl of Luciferase assay substrate (Promega Bright-Glo) was added to each well, and detected by a chemiluminescence detection system (Topcount Microplate Scintillation and Luminescence Counter) 5 minutes later; data analysis.
(§5) 2. Testing EC50 of the Compounds by Detecting Antibiotic G418 Resistance Gene NEO Gene
(§6) The GT1a cells and GT1b cells were seeded into 96-well plates (8,000 cells in 125 μl/well) respectively; each compound was diluted to desired concentration using 5-fold serial dilutions protocol, 10 dose in duplicate, and added to wells with POD™ 810 Plate Assembler, the final concentration of DMSO was 0.5%; the cells were incubated in a CO2 incubator for 72 hours; quantitative PCR. • Sample preparation: the supernatant was removed, 100 μl of FCW buffer solution was added to each well, washed carefully and discarded the solution; 50 μl of lysate FCP was added to each well, the cells was lysed as PCR template and PCR template was diluted with DEPC water as sample template. • Quantitative PCR: preparation of reaction mixture according to PCR system; the reaction mixture was dispensed into a 384-well PCR reaction plate (specially for quantitative); and a standard template which was diluted in proportion was distributed into the plate; and the sample template was distributed into the plate; then the 384-well plate was sealed with closure plate membrane; the […] PCR machine was operated by procedures; data analysis.
(§7) 3. Data processing: EC50 values of compounds were analyzed by GRAPHPAD PRISM® software.

HCV GT1b replicon cells = test: HCV replicon assay, GT1b replicon cells (luciferase reporter / NEO gene qPCR); format: cell-based; settings: EC50 range against HCV 1b genotype, 72 hours incubation
Method: as §1, §2, §3, §4, §5, §6, §7

| SMILES | EC50 (HCV GT1a replicon cells; Hepatitis C virus, GT1A) | EC50 (HCV GT1b replicon cells; Hepatitis C virus, GT1B, 72 h) | EC50 (HCV GT1b replicon cells) | EC50 (HCV GT1a replicon cells) |
| --- | --- | --- | --- | --- |
| COC(=O)N[C@H](C(=O)N1CCC[C@H]1c1nc(-c2ccc(-c3ccc(-c4ccc(-c5cnc([C@@H]6CCCN6C(=O)[C@@H](NC(=O)OC)C(C)C)[nH]5)cc4)c4c3C(=O)C3(CCCC3)C4)cc2)c[nH]1)C(C)C [Example 1] | 0.001 to 0.1 nM | 1 to 10 nM | – | – |
| COC(=O)N[C@H](C(=O)N1CCC[C@H]1c1ncc(C#Cc2ccc(C#Cc3cnc([C@@H]4CCCN4C(=O)[C@@H](NC(=O)OC)C(C)C)[nH]3)c3c2CC2(CCCC2)C3=O)[nH]1)C(C)C [Example 2] | 0.101 to 1 nM | > 10 nM | – | – |
| COC(=O)N[C@H](C(=O)N1CCC[C@H]1c1nc2ccc(-c3ccc(-c4ccc5nc([C@@H]6CCCN6C(=O)[C@@H](NC(=O)OC)C(C)C)[nH]c5c4)c4c3CC3(CCC(C)CC3)C4=O)cc2[nH]1)C(C)C (stereo partly shown) [Example 3] | 0.001 to 0.1 nM | 0.001 to 0.1 nM | – | – |
| COC(=O)N[C@H](C(=O)N1CCC[C@H]1c1nc2ccc(-c3ccc(-c4ccc5nc([C@@H]6CCCN6C(=O)[C@@H](NC(=O)OC)C(C)C)[nH]c5c4)c4c3CC3(CCC(C)CC3)C4)cc2[nH]1)C(C)C [Example 4] | 0.001 to 0.1 nM | 0.001 to 0.1 nM | – | – |
| COC(=O)N[C@H](C(=O)N1CCC[C@H]1c1nc2ccc(-c3ccc(-c4ccc5nc([C@@H]6CCCN6C(=O)[C@@H](NC(=O)OC)C(C)C)[nH]c5c4)c4c3CC3(CCCCC3)C4=O)cc2[nH]1)C(C)C [Example 5] | 0.001 to 0.1 nM | 0.101 to 1 nM | – | – |
| COC(=O)N[C@H](C(=O)N1CCC[C@H]1c1nc2ccc(-c3ccc(-c4ccc5nc([C@@H]6CCCN6C(=O)[C@@H](NC(=O)OC)C(C)C)[nH]c5c4)c4c3CC3(CCCCC3)C4)cc2[nH]1)C(C)C [Example 6] | 0.001 to 0.1 nM | 0.001 to 0.1 nM | – | – |
| COC(=O)N[C@H](C(=O)N1CCC[C@H]1c1ncc(C#Cc2ccc(C#Cc3cnc([C@@H]4CCCN4C(=O)[C@@H](NC(=O)OC)C(C)C)[nH]3)c3c2CC2(CCCC2)C3)[nH]1)C(C)C [Example 8] | 0.001 to 0.1 nM | 1 to 10 nM | – | – |
| CCC(C)[C@H](NC(=O)OC)C(=O)N1CCC[C@H]1c1nc2ccc(-c3ccc(-c4ccc(-c5cnc([C@@H]6CCCN6C(=O)[C@@H](NC(=O)OC)C(C)C)[nH]5)cc4)c4c3CC3(CCCC3)C4)cc2[nH]1 (stereo partly shown) [Example 11] | 0.001 to 0.1 nM | 0.001 to 0.1 nM | – | – |
| COC(=O)N[C@H](C(=O)N1CCC[C@H]1c1ncc(-c2ccc(-c3ccc(-c4cnc([C@@H]5CCCN5C(=O)[C@@H](NC(=O)OC)C(C)C)[nH]4)c4c3CC3(CCCC3)C4)cc2)[nH]1)C(C)C [Example 14] | 0.001 to 0.1 nM | > 10 nM | – | – |
| COC(=O)N[C@H](C(=O)N1CC(F)(F)C[C@H]1c1ncc(-c2ccc(-c3ccc(-c4cnc([C@@H]5CC(F)(F)CN5C(=O)[C@@H](NC(=O)OC)C(C)C)[nH]4)c4c3CC3(CCCC3)C4)cc2)[nH]1)C(C)C [Example 15] | 0.001 to 0.1 nM | > 10 nM | – | – |
| COC(=O)N[C@H](C(=O)N1CCC[C@H]1c1ncc(-c2ccc(-c3ccc(-c4cnc([C@@H]5CCCN5C(=O)[C@@H](NC(=O)OC)c5ccccc5)[nH]4)c4c3CC3(CCCC3)C4)cc2)[nH]1)c1ccccc1 [Example 16] | 0.001 to 0.1 nM | > 10 nM | – | – |
| COC(=O)N[C@H](C(=O)N1CCC[C@H]1c1ncc(-c2ccc(-c3ccc(-c4cnc([C@@H]5CCCN5C(=O)[C@@H](NC(=O)OC)C(C)C)[nH]4)c4c3CC3(CCCC3)C4)s2)[nH]1)C(C)C [Example 17] | 0.101 to 1 nM | > 10 nM | – | – |
| COC(=O)N[C@H](C(=O)N1C[C@@H](C)C[C@H]1c1ncc(-c2ccc(-c3ccc(-c4cnc([C@@H]5C[C@H](C)CN5C(=O)[C@@H](NC(=O)OC)C(C)C)[nH]4)c4c3CC3(CCCCC3)C4)cc2)[nH]1)C(C)C [Example 18] | 0.001 to 0.1 nM | – | > 10 nM | – |
| COC(=O)N[C@H](C(=O)N1C[C@@H](C)C[C@H]1c1ncc(-c2ccc(-c3ccc(-c4cnc([C@@H]5C[C@H](C)CN5C(=O)[C@@H](NC(=O)OC)C(C)C)[nH]4)c4c3CC3(CCCCC3)C4)cc2)[nH]1)C(C)C [Example 20] | – | – | 0.101 to 1 nM | 0.001 to 0.1 nM |
| COC(=O)N[C@H](C(=O)N1CCC[C@H]1c1ncc(-c2ccc(-c3ccc(-c4ccc5nc([C@@H]6CCCN6C(=O)[C@@H](NC(=O)OC)C(C)C)[nH]c5c4)c4c3CC3(CCCC3)C4)nc2)[nH]1)C(C)C [Example 21] | 0.001 to 0.1 nM | 1 to 10 nM | – | – |
| COC(=O)N[C@H](C(=O)N1CCC[C@H]1c1nc2ccc(-c3ccc(-c4ccc5nc([C@@H]6CCCN6C(=O)[C@@H](NC(=O)OC)C(C)C)[nH]c5c4)c4c3CC3(CCCC3)C4)cc2[nH]1)C(C)C [Example 22] | 0.001 to 0.1 nM | 0.001 to 0.1 nM | – | – |
| COC(=O)N[C@H](C(=O)N1CCC[C@H]1c1ncc(-c2ccc(-c3ccc(-c4ccc5nc([C@@H]6CCCN6C(=O)[C@@H](NC(=O)OC)C(C)C)[nH]c5c4)c4c3CC3(CCCC3)C4)cc2)[nH]1)C(C)C [Example 23] | 0.001 to 0.1 nM | 0.001 to 0.1 nM | – | – |
| CCC(=O)N[C@H](C(=O)N1CCC[C@H]1c1ncc(-c2ccc(-c3ccc(C#Cc4cnc([C@@H]5CCCN5C(=O)[C@@H](NC(=O)OC)C(C)C)[nH]4)c4c3CC3(CCCC3)C4)cc2)[nH]1)C(C)C [Example 24] | 0.001 to 0.1 nM | 0.001 to 0.1 nM | – | – |
| COC(=O)N[C@H](C(=O)N1C[C@H](F)C[C@H]1c1ncc(-c2ccc(-c3ccc(-c4cnc([C@@H]5C[C@@H](F)CN5C(=O)[C@@H](NC(=O)OC)C(C)C)[nH]4)c4c3CC3(CCCC3)C4)cc2)[nH]1)C(C)C [Example 29] | 0.001 to 0.1 nM | 0.001 to 0.1 nM | – | – |
| COC(=O)N[C@H](C(=O)N1CCC[C@H]1c1ncc(-c2ccc(-c3ccc(-c4ccc5nc([C@@H]6CCCN6C(=O)[C@@H](NC(=O)OC)C(C)C)[nH]c5c4)c4c3C(=O)C3(CCCC3)C4)cc2)[nH]1)C(C)C [Example 36] | 0.001 to 0.1 nM | 0.001 to 0.1 nM | – | – |
| COC(=O)N[C@H](C(=O)N1CCC[C@H]1c1ncc(-c2ccc(-c3ccc(-c4cnc([C@@H]5CCCN5C(=O)[C@@H](NC(=O)OC)C(C)C)[nH]4)c4c3C(=O)C3(CCCC3)C4)cc2)[nH]1)C(C)C [Example 37] | 1 to 10 nM | 1 to 10 nM | – | – |
| COC(=O)N[C@H](C(=O)N1CCC[C@H]1c1ncc(-c2ccc(-c3ccc(-c4ccc(-c5cnc([C@@H]6CCCN6C(=O)[C@@H](NC(=O)OC)C(C)C)[nH]5)cc4)c4c3CC3(CCCC3)C4)cc2)[nH]1)C(C)C [Example 38] | 0.101 to 1 nM | > 10 nM | – | – |
| COC(=O)N[C@H](C(=O)N1CCC[C@H]1C(=O)Nc1ccc(-c2ccc(-c3ccc(NC(=O)[C@@H]4CCCN4C(=O)[C@@H](NC(=O)OC)C(C)C)cc3)c3c2CC2(CCCC2)C3)cc1)C(C)C [Example 39] | 0.001 to 0.1 nM | 0.101 to 1 nM | – | – |
| COC(=O)N[C@H](C(=O)N1C[C@@H](C)C[C@H]1c1ncc(-c2ccc(-c3ccc(-c4ccc(-c5cnc([C@@H]6C[C@H](C)CN6C(=O)[C@@H](NC(=O)OC)C(C)C)[nH]5)cc4)c4c3CC3(CCCC3)C4)cc2)[nH]1)C(C)C [Example 40] | 0.001 to 0.1 nM | 1 to 10 nM | – | – |
| COC(=O)N[C@H](C(=O)N1CC2(CC2)C[C@H]1c1ncc(-c2ccc(-c3ccc(-c4ccc(-c5cnc([C@@H]6CC7(CC7)CN6C(=O)[C@@H](NC(=O)OC)C(C)C)[nH]5)cc4)c4c3CC3(CCCC3)C4)cc2)[nH]1)C(C)C [Example 41] | 1 to 10 nM | > 10 nM | – | – |
| CCC(C)[C@H](NC(=O)OC)C(=O)N1C2CC2C[C@H]1c1ncc(-c2ccc(-c3ccc(-c4cnc([C@@H]5CC6CC6N5C(=O)[C@@H](NC(=O)OC)C(C)CC)[nH]4)c4c3CC3(CCCC3)C4)cc2)[nH]1 (stereo partly shown) [Example 43] | 0.001 to 0.1 nM | > 10 nM | – | – |
| COC(=O)N[C@H](C(=O)N1CCCC[C@H]1c1ncc(-c2ccc(-c3ccc(-c4cnc([C@@H]5CCCCN5C(=O)[C@@H](NC(=O)OC)C(C)C)[nH]4)c4c3CC3(CCCC3)C4)cc2)[nH]1)C(C)C [Example 45] | 0.001 to 0.1 nM | > 10 nM | – | – |
| COC(=O)N[C@H](C(=O)N1CCC[C@H]1c1ncc(-c2ccc3cc(-c4ccc(-c5cnc([C@@H]6CCCN6C(=O)[C@@H](NC(=O)OC)C(C)C)[nH]5)c5c4CC4(CCCCC4)C5)ccc3c2)[nH]1)C(C)C [Example 49] | 0.001 to 0.1 nM | 1 to 10 nM | – | – |
| COC(=O)N[C@H](C(=O)N1CCC[C@H]1c1ncc(-c2ccc(-c3ccc(-c4cnc([C@@H]5CCCN5C(=O)[C@@H](NC(=O)OC)C(C)C)[nH]4)c4c3CC3(CCCCC3)C4)cc2)[nH]1)C(C)C [Example 50] | 0.001 to 0.1 nM | 1 to 10 nM | – | – |
